Experiments:
Male SD rats = conditions: rat, in vivo
Method: Male SD rats weighing 350-420 g were anesthetized with 2-3% isoflurane. The femoral artery and vein were catheterized and connected to a mean arterial blood pressure (MAP) and heart rate (HR) monitor and a continuous intravenous infusion pump. Under anesthesia, MAP and HR were recorded 10-20 minutes prior to and during the continuous intravenous infusion of test compounds for 60-70 minutes. The infusion rate, 0.14-0.16 ml/kg/minute, was determined on the basis of vehicle tolerance. The infusion doses, 1.0-1.25 mg/kg/minute, were selected, depending upon the solubility of the compound and effects on MAP and HR of the positive control compounds at the lethal dose. The maximal effective dose or lethal dose of test compounds were determined accordingly.

[1] = system: male db/db mice (BKS.Cg-m+/+Lepr db/J); experiment: Intraperitoneal glucose tolerance test (IPGTT) in db/db mice (Example 122, FIGS. 3 and 5); assay type: in vivo, mouse; conditions: IPGTT
Method: Six to eight week old, male db/db mice (BKS.Cg-m+/+Lepr^db/J; stock number 000642), homozygous for a mutation in the gene encoding the leptin receptor, were purchased from The Jackson Laboratory (Bar Harbor, Me. USA). Animals were singly housed in conventional caging on a 12 hr/12 hr light/dark cycle, acclimated for at least five days prior to use and fed normal laboratory chow ad libitum between experiments. Studies were conducted with animals between seven and fourteen weeks of age. Animals were used for a maximum of five consecutive studies, with a minimum recovery period of five days between studies.
To perform an IPGTT or OGTT, db/db mice were fasted overnight beginning on day 0 at −17.5 to −18.5 hrs relative to the glucose dose on day 1 (all time points below are stated relative to the time of an intraperitoneal or oral glucose dose on day 1). At −4.5 hrs, animals were weighed, blood was collected by tail vein lancing and fasted blood glucose levels determined using a hand-held glucometer (MediSense Precision Xtra or LifeScan OneTouch Ultra). Animals were randomized into dosing groups of 6-7 animals, with each group having a similar average fasted blood glucose level. At −3 hr, animals were dosed with vehicle alone, a test compound or metformin by oral gavage at 5 ml/kg body weight. […] Blood glucose levels were determined as above at −45 min and +45 min, and also +90 min and/or +150 min (see FIG. 3 and the Table in this section). Alternatively, blood glucose levels were determined at −30 min, +30 min, +60 min and +120 min (see FIGS. 4 and 5).
Compound doses were adjusted to be the molar equivalents of 50 mg/kg of Compound 39. The percent change in blood glucose between −45 min and a time point, y, after glucose dosing (e.g., +45 min, +150 min, ect.) was calculated for each animal using formula 1: [formula]
The percent change in blood glucose between −45 min and a time point, y, after glucose dosing was calculated for each animal using formula 1.
Average percent change in glucose intolerance was calculated using Formula 2, as noted in the table below. […]

[2] = system: NIDDM male mice (C57BLKS/J-m+/+Lepr db); experiment: 7 day baseline glucose test in db/db mice (Example 119); assay type: in vivo, mouse; conditions: for Serum Glucose % Pre-Treatment Baseline: 3 hours after dose
Method: Non-insulin dependent diabetic mellitus (NIDDM) male mice (C57BLKS/J-m+/+Lepr db), weighing 50±5 g and 9-10-week old, were used. The animals were housed in Individually Ventilated Cages Racks (IVC Racks) throughout the experiment and all animals were allowed free access to sterilized Lab chow and sterilized distilled water. Compounds 39, 41 and 64 at 50 mg/kg as well as vehicle (0.5% Methylcellulose) were administered orally once daily for 7 consecutive days to test animals after the first blood sampling (pre-treatment). The post-treatment blood samples were withdrawn from the orbital sinus at 3 hours after administration of daily dose on day 3 and on day 7. Serum glucose levels in the pre- and post-treatment were determined by enzymatic (Mutaratase-GOD) methods. Post-treatment serum glucose values were expressed in percentage of respective pre-treatment values. Percentage reductions were expressed in percentage of pre-treatment values of test substance relative to percentage of pre-treatment values of vehicle. All percentages were calculated and unpaired; Student's t test was then applied to establish significant difference between the test compound-treated and vehicle control groups. Differences are considered significant at P<0.05.

[3] = system: male db/db mice (BKS.Cg-m+/+Lepr db/J); experiment: Oral glucose tolerance test (OGTT) in db/db mice (Example 122, FIG. 4); assay type: in vivo, mouse; conditions: orally dosed
Method: To determine the effect of a test compound on blood glucose levels in diabetic mice, intraperitoneal and/or oral glucose tolerance tests (IPGTT and OGTT, respectively) were conducted. Six to eight week old, male db/db mice (BKS.Cg-m+/+Lepr^db/J; stock number 000642), homozygous for a mutation in the gene encoding the leptin receptor, were purchased from The Jackson Laboratory (Bar Harbor, Me. USA). Animals were singly housed in conventional caging on a 12 hr/12 hr light/dark cycle, acclimated for at least five days prior to use and fed normal laboratory chow ad libitum between experiments. Studies were conducted with animals between seven and fourteen weeks of age. […]
To perform an IPGTT or OGTT, db/db mice were fasted overnight beginning on day 0 at −17.5 to −18.5 hrs relative to the glucose dose on day 1 (all time points below are stated relative to the time of an intraperitoneal or oral glucose dose on day 1). At −4.5 hrs, animals were weighed, blood was collected by tail vein lancing and fasted blood glucose levels determined using a hand-held glucometer (MediSense Precision Xtra or LifeScan OneTouch Ultra). […] Blood glucose levels were determined as above at −45 min and +45 min, and also +90 min and/or +150 min (see FIG. 3 and the Table in this section). Alternatively, blood glucose levels were determined at −30 min, +30 min, +60 min and +120 min (see FIGS. 4 and 5). […]

[4] = Day 3, 50 mg/kg orally once daily
[5] = Day 7, 50 mg/kg orally once daily

For CCOC(=O)C1=C(COCCN)NC2=C(C(=O)CC(C)(C)C2)C1c1cccnc1 (centres unmarked) [Compound 39, 2-(2-Amino-ethoxymethyl)-7,7-dimethyl-5-oxo-4-pyridin-3-yl-1,4,5,6,7,8-hexahydro-quinoline-3-carboxylic acid ethyl ester], the “Lethal Dose” value (Male SD rats) was over 70 mg/kg, the “glucose intolerance relative to vehicle-treated animals (FIG. 5)” value ([1]; Compound 39 orally dosed alone) was “decreased” and the “effect of metformin on glucose intolerance in combination with Compound 39 (FIG. 5)” value ([1]; Compound 39 orally in combination with metformin) was “enhanced”. For the same molecule, the “serum glucose % Reduction relative to vehicle” value [2, 4] was “(3) %”, the “Serum Glucose % Pre-Treatment Baseline” value [2, 4] was 98.5% and the “serum glucose % Reduction relative to vehicle” value [2, 5] was “(18) %”. For the same molecule, the “Serum Glucose % Pre-Treatment Baseline” value [2, 5] was 82.3% and the “glucose intolerance relative to vehicle-treated animals (FIG. 4)” value [3] was “decreased”.
